Results: US20050196806A1, “Prostate specific antigen oligoepitope peptide” (The Government of the USA, as represented by the Secretary, …, priority 1996, published 2005)
Where “and” joins values, the source holds several entries; their conditions need not be identical. Equal entries are not always repeated. Marks after values point to notes of the source that are not given here.

What was measured:
[1] = molecular target: T1, human HLA A2 molecules (Homo sapiens, UniProt P04439, D140Y/D185E/D98H/E176V/E277Q/G131W/G231S/I119V/I121R/I166T/I218V/L300P/L318F/N151K/N90K/P208A/P217A/Q86G/Q94H/R138H/R169H/T345S); assay: T2 cell binding assay (PSA peptide binding assay, Example II); conditions: peptides at 50 μg/ml, None = 127.25
T1 construct: endogenous in cells; host or cells: T2 cells (174CEM.T2)
Description: The amino acid sequence of human PSA was scanned using a predictive algorithm that combines a search for anchor residues with numerical assignments to all residues at all positions. The T2 cell binding assay was then used to determine which peptides bound human HLA A2 molecules. […] Table 7 gives the amino acid sequence of these peptides and compares them to corresponding sequences of HGK and PKA.

[2] = system: CIR-A2 cells; assay: CTL activity of PSA-OP specific T cell lines against peptide pulsed CIR-A2 cells; type: cell-based, human; conditions: effector T/PSA-OP-1; 50 μg/ml peptide for 3 h; 18 h CTL assay; E:T ratio 25:1; No peptide 7.9(2.7)
Procedure: Peripheral blood mononuclear cells (PBMCs) were obtained from heparinized blood of healthy HLA-A2 donors using a lymphocyte separation medium gradient (Organon Technika, Durham, N.C.). The mononuclear cell fraction was washed 3 times and PBMCs were resuspended in complete medium: AIM V (Life Technologies, Inc.) supplemented with 5% human AB serum (Valley Biomedical, Winchester, Va.), 2 mM glutamine, 100 U/ml of penicillin, and 100 μg/ml of streptomycin (GIBCO). Cells (2×10^5) in complete medium in a volume of 100 μl were put into each well of a 96-well flat-bottom assay plate (Corning, Costar Corp., Cambridge, Mass.). Peptides were added to cultures at a final concentration of […]. Cultures were incubated for 5 days at 37° C. in a humidified atmosphere containing 5% CO2. […]
Various target cells were labeled with 50 μCi of ^111In-oxyquinoline (Medi-Physics Inc., Arlington, Ill.) for 15 minutes at room temperature. […] Determinations were carried out in triplicate and standard deviations were calculated. […] Specific Lysis was calculated using the following formula: % of Specific Release=observed release(cpm)−spontaneous release(cpm) total releae(cpm)−spontaneous release(cpm)×100
Spontaneous release was determined from wells to which 100 μl of complete medium, instead of effector cells was added. Total releasable radioactivity was obtained after treatment of target cells with 2.5% Triton X-100.

[3] = system: NK target K562; assay: Cytotoxic assay of PSA peptide specific T cells against K562; type: cell-based, human; conditions: T-Donor A T-cell line; 24 hour assay, E:T ratio 25:1
Description: (§1) Four of the T cell lines derived from three different individuals were then assays for their ability to lyse human cells (Table 9). […] No lysis was seen using the PSA negative human colon cancer cell line COLO-205. While 80% lysis was seen using the LNCAP PSA expressing human prostate cancer cell line. When employing the NK target K562, which measures non-specific lysis due to NK cell activity, only 23% lysis was obtained. Similar results were seen employing a different T cell line obtained from the same patient which was derived from pulsing with PSA peptide 154-163. Two additional T cell lines which were derived from peptide 154-163 were also analyzed. One was from a normal donor (T-1538) and one was from a prostate cancer patient (T-PC2; T Donor C).

[4] = system: LNCAP PSA expressing human prostate cancer cell line; assay: Cytotoxic assay of PSA peptide specific T cells against LNCAP (Example III); type: cell-based; conditions: T-Donor A T-cell line; 24 hour assay, E:T ratio 25:1; listed as 141-150
Description: as §1

[5] = system: PBLs isolated from male HLA-A2001+ donors; assay: Limiting dilution analysis of CTL precursor frequency; type: cell-based, human; conditions: for Number of precursors (precursor frequency): calculated by X^2 minimization; for % of negative microcolonies, 10,000: two cycles of stimulation with the peptide, targets CIRA2 pulsed 3 h, cold K562
Procedure: Limiting dilution assays were used for the determination of precursor frequencies to PSA-1, PSA-3 and PSA-OP. Various number of PBMCs were seeded in 96-well flat bottom plates (Coming Costar) with 1×10^4 autologous PBMC irradiated with 4,000 rads and incubated with 50 μg/ml of PSA peptide. Cells were cultured in complete medium as described previously. At least 48 cultures were set up for each dilution. Cultures were incubated for 5 days at 37° C. in a humidified atmosphere containing 5% CO2 and then provided with fresh medium containing human IL-2 for 11 days, with IL-2-containing medium being replenished every 72 hr as shown below for CTLs generation. After two cycles of stimulation specific cytotoxic activity was tested for each single well, against CIR-A2 target cells with or without incubation with peptide. Cytotoxic assays were similar to the method described above. The unlabelled K562 cells were added to the microwells containing responder cells. After 1 hr incubation at 37° C. target cells were added into each well and incubated for 6 hrs at 37° C. Precursor frequencies were calculated by X^2 minimization.

[6] = system: T2 cells; assay: Cytotoxic assay of PSA peptide specific T cells against T2 cells; type: cell-based, human; conditions: 24 hour assay, E:T ratio 25:1
[7] = molecular target: T2, HLA class-I A2001 molecule (Homo sapiens, UniProt P04439, D140Y/D185E/D98H/E176V/E277Q/G131W/G231S/I119V/I121R/I166T/I218V/L300P/L318F/N151K/N90K/P208A/P217A/Q86G/Q94H/R138H/R169H/T345S); assay: Peptide binding to HLA-A2: upregulation on T2 cells by flow cytometry (Example IV); conditions: T2 cells incubated 24 h with peptide 50 μg/ml/10^6 cells; 100 cut off value for positivity; None = 16.88
T2 construct: endogenous in cells; host or cells: T2 cells (174CEM.T2, transport deletion mutant)
Procedure: 1×10^6 cells in serum-free IMDM were incubated with peptides at the concentration of 50 μg/ml in 24-well culture plates at 37° C. in 5% CO2. Flow cytometry for peptide binding was performed using T2 cells and single color analysis. After cells were washed three times in DPBS as above, they were incubated for 1 hr with HLA-A2 specific MAb A2,69 (One lambda, Inc., Canoga Park, Calif.), using 10 μl of a 1× working dilution per 10^6 cells. MOPC-21 (Cappel/Organon Teknika Corp.) was used as isotype control. The cells were then washed three times and incubated with 1:100 dilution of fluorescein (FITC) labeled anti-mouse IgG (Kirkegaard & Perry, Gaithersburg, Md.). Analysis was carried out using the FACScan as described above. Cells were maintained on ice during all cell preparation and staining unless otherwise stated.

## FLTPKKLQCV [PSA-1, ID No. 1]
[1]; listed as 141-150
  MAb A2, 69: Mean channel fluorescent intensity: positive
[1]; listed as PSA 141-150
  MAb A2, 69: Mean channel fluorescent intensity: 230.34
[2]
  % of Specific release (SD), CIR-A2 cells pulsed with the peptide: 8.4(4.0) %
[3]
  % specific release (lysis), K562: 23%
[4]
  % specific release (lysis), LNCAP: 80% and 80^b %
[5]; T/PSA-OP 2 donor
  % of negative microcolonies, 500: 95.8%
  % of negative microcolonies, 1,000: 93.7%
  % of negative microcolonies, 5,000: 75.0%
  Number of precursors (precursor frequency): 1/14695
  % of negative microcolonies, 10,000: 47.9%
[5]; T/PSA-OP 3 donor
  % of negative microcolonies, 500: 100.0%
  % of negative microcolonies, 1,000: 100.0%
  % of negative microcolonies, 5,000: 97.9%
  Number of precursors (precursor frequency): 1/181480
  % of negative microcolonies, 10,000: 93.7%
[6]; T-Donor A T-cell line derived with the peptide, 111In release
  % specific release (lysis), T2: 10^a %
[6]; T-Donor A T-cell line
  % specific release (lysis), T2 + peptide: 40^b %
[7]
  T2 binding: relative fluorescence (mean intensity) with anti-HLA-A2 mAb: 127.73
